Reference: patent publication US20240246956A1, “CLASS IIA HISTONE DEACETYLASE (HDAC) DEGRADER LIGANDS AND METHODS OF USE THEREOF” (DANA-FARBER CANCER INSTITUTE, INC., priority 2021, published 2024)

Biological target: HDAC5 (Homo sapiens, UniProt Q9UQL6)
Assay: Global quantitative proteomics, change in protein abundance in Kelly cells
Format: cell-based
Parameters: endogenous in cells; host or cells: Kelly cells
Conditions: 1 μM, 5-hour treatment, vs DMSO, FIG. 3
Procedure: Cells were washed once with phosphate-buffered saline (PBS), harvested with CellstripperTM (Corning®), washed two additional times with PBS and snap frozen in liquid nitrogen. […] Proteins were precipitated using methanol/chloroform in Donovan et al., Elife 7:e38430 (2018). The precipitated protein was resuspended in 4 M Urea, 50 mM HEPES pH 7.4, followed by dilution to 1 M urea with the addition of 200 mM EPPS, pH 8. Proteins were first digested with LysC (1:50: enzyme:protein) for 12 hours at room temperature. The LysC digestion was diluted to 0.5 M Urea with 200 mM EPPS pH 8 followed by digestion with trypsin (1:50: enzyme:protein) for 6 hours at 37° C. Tandem mass tag (TMT) reagents (Thermo Fisher Scientific) were dissolved in anhydrous acetonitrile (ACN) according to manufacturer's instructions. Anhydrous ACN was added to each peptide sample to a final concentration of 30% v/v, and labeling was induced with the addition of TMT reagent to each sample at a ratio of 1:4 peptide:TMT label. The 11-plex labeling reactions were performed for 1.5 hours at room temperature and the reaction quenched by the addition of hydroxylamine to a final concentration of 0.3% for 15 minutes at room temperature. The sample channels were combined at a 1:1 ratio, desalted using C18 solid phase extraction cartridges (Waters®) and analyzed by LC-MS for channel ratio comparison. Samples were then combined using the adjusted volumes determined in the channel ratio analysis and dried down in a speed vacuum. The combined sample was then resuspended in 1% formic acid, and acidified (pH 2-3) before being subjected to desalting with C18 SPE (Sep-Pak®-, Waters®). […] The 96 resulting fractions were then pooled in a non-contiguous manner into 24 fractions and these fractions were used for subsequent mass spectrometry analysis. Data were collected using an Orbitrap FusionTM LumosTM mass spectrometer (Thermo Fisher Scientific, San Jose, CA, USA) coupled with a […] pump (Thermo Fisher Scientific). Peptides were separated on an EasySprayTM ES803.rev2 75 μm inner diameter microcapillary column (ThermoFisher Scientific). Peptides were separated using a 190 min gradient of 6-27% acetonitrile in 1.0% formic acid with a flow rate of 300 nL/min. Each analysis used an MS3-based TMT method as described in McAlister et al., Anal. Chem. 86(14):7150-7158 (2014). The data were acquired using a mass range of m/z 340-1350, resolution 120,000, automatic gain control (AGC) target 1×10^6, maximum injection time 100 ms, dynamic exclusion of 120 seconds for the peptide measurements in the Orbitrap FusionTM LumosTM mass spectrometer. Data dependent MS2 spectra were acquired in the ion trap with a normalized collision energy (NCE) set at 55%, AGC target set to 1.5×10^5 and a maximum injection time of 150 ms. MS3 scans were acquired in the Orbitrap FusionTM LumosTM mass spectrometer with a higher energy collision dissociation (HCD) set to 55%, AGC target set to 1.5×10^5, maximum injection time of 150 ms, resolution at 50,000 and with a maximum synchronous precursor selection (SPS) precursors set to 10. Proteome Discoverer 2.2 (Thermo Fisher Scientific) was used for .RAW file processing and controlling peptide and protein level false discovery rates, assembling proteins from peptides, and protein quantification from peptides. MS/MS spectra were searched against a Swissprot human database (December 2016) with both the forward and reverse sequences. […] TMT reporter ion intensities were measured using a 0.003 Da window around the theoretical m/z for each reporter ion in the MS3 scan. […] Reporter ion intensities were normalized and scaled using in-house scripts in the R framework. Statistical analysis was carried out using the limma package within the R framework as described in Ritchie et al., Nucleic Acids Res. 43(7):e47 (2015).

Chain of HDAC5 (Q9UQL6 whole entry): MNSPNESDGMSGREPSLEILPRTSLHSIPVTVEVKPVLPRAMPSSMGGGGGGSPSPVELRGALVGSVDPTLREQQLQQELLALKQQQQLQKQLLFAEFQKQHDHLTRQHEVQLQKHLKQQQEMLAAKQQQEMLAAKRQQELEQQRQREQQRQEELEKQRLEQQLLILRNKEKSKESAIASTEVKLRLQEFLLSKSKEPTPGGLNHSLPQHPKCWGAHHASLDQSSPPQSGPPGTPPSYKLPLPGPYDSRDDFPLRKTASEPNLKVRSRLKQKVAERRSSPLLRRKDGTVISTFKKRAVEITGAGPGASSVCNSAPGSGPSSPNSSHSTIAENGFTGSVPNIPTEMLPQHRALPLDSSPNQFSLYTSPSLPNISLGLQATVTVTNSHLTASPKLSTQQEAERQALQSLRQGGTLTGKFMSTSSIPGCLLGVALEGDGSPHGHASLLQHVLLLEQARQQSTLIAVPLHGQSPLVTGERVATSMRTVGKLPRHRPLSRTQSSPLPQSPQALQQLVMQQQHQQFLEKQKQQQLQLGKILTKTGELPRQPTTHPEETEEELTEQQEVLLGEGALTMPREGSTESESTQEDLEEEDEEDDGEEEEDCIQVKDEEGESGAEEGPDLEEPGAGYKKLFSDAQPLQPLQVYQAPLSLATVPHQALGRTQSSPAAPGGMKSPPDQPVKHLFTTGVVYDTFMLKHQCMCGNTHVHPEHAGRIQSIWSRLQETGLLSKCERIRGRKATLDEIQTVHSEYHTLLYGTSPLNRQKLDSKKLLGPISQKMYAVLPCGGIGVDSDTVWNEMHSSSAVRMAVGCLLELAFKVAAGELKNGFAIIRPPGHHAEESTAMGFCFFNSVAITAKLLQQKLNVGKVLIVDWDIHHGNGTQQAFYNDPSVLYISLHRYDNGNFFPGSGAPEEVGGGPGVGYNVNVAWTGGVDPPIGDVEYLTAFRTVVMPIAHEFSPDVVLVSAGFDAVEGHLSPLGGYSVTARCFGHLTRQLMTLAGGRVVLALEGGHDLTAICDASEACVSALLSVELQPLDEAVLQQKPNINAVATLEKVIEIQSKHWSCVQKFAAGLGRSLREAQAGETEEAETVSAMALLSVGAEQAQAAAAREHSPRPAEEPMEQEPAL

protein expression level of HDAC5: reduction in protein expression level
SMILES: CCN(CCNc1cccc2c1C(=O)N(C1CCC(=O)NC1=O)C2=O)C[C@@H](C)NC(=O)c1ccc(-c2noc(C(F)(F)F)n2)cc1 (stereo partly drawn) [Compound 16, N-((2R)-1-((2-((2-(2,6-dioxopiperidin-3-yl)-1,3-dioxoisoindolin-4-yl)amino)ethyl)(ethyl)amino)propan-2-yl)-4-(5-(trifluoromethyl)-1,2,4-oxadiazol-3-yl)benzamide]
